Laboratory results from the NIST ThermoML archive (doi:10.1021/je025655p).

Legend:
[1] = xn = mol fraction of the nth substance listed; conditions: 101.3 kPa, Liquid; for viscosity: Capillary tube (Ostwald / Ubbelohde) method; for speed of sound: Sing-around technique in a fixed-path interferometer; for mass density: Vibrating tube method
[2] = excess molar enthalpy (molar enthalpy of mixing); xn = mol fraction of the nth substance listed; conditions: 101.3 kPa, Liquid, Flow calorimetry

OCC(F)(F)F [2,2,2-trifluoroethanol] + C1CCOCC1
Conditions | excess molar enthalpy [kcal/mol] | mass density [kg/m3] | speed of sound [m/s] | viscosity [mPa·s]
[1], 283.15 K, x2 = 0.0508 | – | – | – | 2.521
[1], 283.15 K, x2 = 0.1011 | – | – | – | 2.265
[1], 283.15 K, x2 = 0.1039 | – | 1328.18 | 903.5 | –
[1], 283.15 K, x2 = 0.2025 | – | – | – | 1.834
[1], 283.15 K, x2 = 0.2071 | – | 1259.32 | 942.2 | –
[1], 283.15 K, x2 = 0.3024 | – | – | – | 1.546
[1], 283.15 K, x2 = 0.3067 | – | – | 985.6 | –
[1], 283.15 K, x2 = 0.3073 | – | 1199.39 | – | –
[1], 283.15 K, x2 = 0.404 | – | – | – | 1.348
[1], 283.15 K, x2 = 0.4123 | – | – | 1034 | –
[1], 283.15 K, x2 = 0.4127 | – | 1142.29 | – | –
[1], 283.15 K, x2 = 0.5017 | – | 1097.77 | 1076.2 | –
[1], 283.15 K, x2 = 0.5027 | – | – | – | 1.22
[1], 283.15 K, x2 = 0.6011 | – | 1051.7 | 1124.9 | –
[1], 283.15 K, x2 = 0.6069 | – | – | – | 1.123
[1], 283.15 K, x2 = 0.7013 | – | – | – | 1.064
[1], 283.15 K, x2 = 0.7183 | – | 1001.3 | 1184.3 | –
[1], 283.15 K, x2 = 0.8016 | – | – | – | 1.026
[1], 283.15 K, x2 = 0.8206 | – | 960.36 | 1237.7 | –
[1], 283.15 K, x2 = 0.8955 | – | 931.9 | 1278.1 | –
[1], 283.15 K, x2 = 0.9064 | – | – | – | 1.01
[1], 298.15 K, x2 = 0.0508 | – | – | – | 1.68
[1], 298.15 K, x2 = 0.1011 | – | – | – | 1.557
[1], 298.15 K, x2 = 0.1023 | – | 1305.58 | 850.5 | –
[1], 298.15 K, x2 = 0.2025 | – | – | – | 1.33
[1], 298.15 K, x2 = 0.2029 | – | 1239.41 | 886.4 | –
[1], 298.15 K, x2 = 0.3024 | – | – | – | 1.159
[1], 298.15 K, x2 = 0.3203 | – | 1170.85 | 933.6 | –
[1], 298.15 K, x2 = 0.404 | – | – | – | 1.034
[1], 298.15 K, x2 = 0.412 | – | 1122.5 | 972.6 | –
[1], 298.15 K, x2 = 0.5027 | – | – | – | 0.9509
[1], 298.15 K, x2 = 0.5192 | – | 1070.38 | – | –
[1], 298.15 K, x2 = 0.5208 | – | – | 1021 | –
[1], 298.15 K, x2 = 0.6069 | – | – | – | 0.8855
[1], 298.15 K, x2 = 0.6171 | – | 1026.55 | 1065.4 | –
[1], 298.15 K, x2 = 0.7013 | – | – | – | 0.845
[1], 298.15 K, x2 = 0.7342 | – | 977.81 | 1121 | –
[1], 298.15 K, x2 = 0.793 | – | 954.59 | – | –
[1], 298.15 K, x2 = 0.7996 | – | – | 1152.3 | –
[1], 298.15 K, x2 = 0.8016 | – | – | – | 0.8183
[1], 298.15 K, x2 = 0.8967 | – | 915.73 | 1201.6 | –
[1], 298.15 K, x2 = 0.9064 | – | – | – | 0.8047
[1], 313.15 K, x2 = 0.0508 | – | – | – | 1.171
[1], 313.15 K, x2 = 0.0995 | – | – | 813.9 | –
[1], 313.15 K, x2 = 0.1011 | – | – | – | 1.112
[1], 313.15 K, x2 = 0.1028 | – | 1280.8 | – | –
[1], 313.15 K, x2 = 0.2 | – | 1217.96 | 845.8 | –
[1], 313.15 K, x2 = 0.2025 | – | – | – | 0.9911
[1], 313.15 K, x2 = 0.3024 | – | – | – | 0.891
[1], 313.15 K, x2 = 0.3049 | – | 1157.77 | 885 | –
[1], 313.15 K, x2 = 0.404 | – | – | – | 0.8127
[1], 313.15 K, x2 = 0.4108 | – | 1102.63 | – | –
[1], 313.15 K, x2 = 0.4111 | – | – | 927.4 | –
[1], 313.15 K, x2 = 0.5027 | – | – | – | 0.757
[1], 313.15 K, x2 = 0.504 | – | 1058.19 | 967.4 | –
[1], 313.15 K, x2 = 0.5961 | – | 1017.26 | – | –
[1], 313.15 K, x2 = 0.6032 | – | – | 1010.4 | –
[1], 313.15 K, x2 = 0.6069 | – | – | – | 0.7128
[1], 313.15 K, x2 = 0.6986 | – | 974.97 | – | –
[1], 313.15 K, x2 = 0.7013 | – | – | – | 0.6832
[1], 313.15 K, x2 = 0.733 | – | – | 1070.3 | –
[1], 313.15 K, x2 = 0.8016 | – | – | – | 0.6642
[1], 313.15 K, x2 = 0.8321 | – | 923.77 | 1116.2 | –
[1], 313.15 K, x2 = 0.8986 | – | 899.6 | – | –
[1], 313.15 K, x2 = 0.8988 | – | – | 1149.4 | –
[1], 313.15 K, x2 = 0.9064 | – | – | – | 0.6543
[2], 283.15 K, x2 = 0.065 | -0.102 | – | – | –
[2], 283.15 K, x2 = 0.127 | -0.178 | – | – | –
[2], 283.15 K, x2 = 0.248 | -0.283 | – | – | –
[2], 283.15 K, x2 = 0.36 | -0.342 | – | – | –
[2], 283.15 K, x2 = 0.466 | -0.362 | – | – | –
[2], 283.15 K, x2 = 0.57 | -0.35 | – | – | –
[2], 283.15 K, x2 = 0.664 | -0.303 | – | – | –
[2], 283.15 K, x2 = 0.755 | -0.243 | – | – | –
[2], 283.15 K, x2 = 0.839 | -0.168 | – | – | –
[2], 283.15 K, x2 = 0.921 | -0.0829 | – | – | –
[2], 283.15 K, x2 = 0.962 | -0.037 | – | – | –
[2], 298.15 K, x2 = 0.065 | -0.113 | – | – | –
[2], 298.15 K, x2 = 0.127 | -0.204 | – | – | –
[2], 298.15 K, x2 = 0.248 | -0.322 | – | – | –
[2], 298.15 K, x2 = 0.36 | -0.384 | – | – | –
[2], 298.15 K, x2 = 0.466 | -0.404 | – | – | –
[2], 298.15 K, x2 = 0.57 | -0.387 | – | – | –
[2], 298.15 K, x2 = 0.664 | -0.339 | – | – | –
[2], 298.15 K, x2 = 0.755 | -0.268 | – | – | –
[2], 298.15 K, x2 = 0.839 | -0.184 | – | – | –
[2], 298.15 K, x2 = 0.921 | -0.0908 | – | – | –
[2], 298.15 K, x2 = 0.962 | -0.0428 | – | – | –
[2], 313.15 K, x2 = 0.065 | -0.114 | – | – | –
[2], 313.15 K, x2 = 0.127 | -0.215 | – | – | –
[2], 313.15 K, x2 = 0.248 | -0.348 | – | – | –
[2], 313.15 K, x2 = 0.36 | -0.421 | – | – | –
[2], 313.15 K, x2 = 0.466 | -0.444 | – | – | –
[2], 313.15 K, x2 = 0.57 | -0.427 | – | – | –
[2], 313.15 K, x2 = 0.664 | -0.374 | – | – | –
[2], 313.15 K, x2 = 0.755 | -0.297 | – | – | –
[2], 313.15 K, x2 = 0.839 | -0.203 | – | – | –
[2], 313.15 K, x2 = 0.921 | -0.0997 | – | – | –
[2], 313.15 K, x2 = 0.962 | -0.0466 | – | – | –
